Test system: T1, cathepsin B/X (cysteine peptidase of the spine aqueous extract)
T1 construct: gene CTSB; anti-cathepsin B bands between 60 and 80 kDa
Assay: fluorogenic substrate hydrolysis (MCA release), non-linear regression
Format: biochemical, Echinometra lucunter
Conditions: crude spine extract; 100 mM ammonium acetate, pH 7.4, 30°C; preincubated with 2 mM DTT
Description: fluorogenic substrate hydrolysis (MCA release), non-linear regression on cathepsin B/X (cysteine peptidase of the spine aqueous extract)

With `Cc1cc(=O)oc2cc(NC(=O)[C@H](CCCNC(=N)N)NC(=O)OCc3ccccc3)ccc12` [Z-R-MCA, carbobenzoxy-L-arginine-7-amino-4-methylcoumarin] the Km was 147 ± 40 µM.

Source: publication PMC3880103, “Cathepsin B/X is secreted by Echinometra lucunter sea urchin spines, a structure rich in granular cells and toxins” (The Journal of Venomous Animals and Toxins Including …, 2013)
